# Patent publication US12552772B2, “2-pyrazole anilines and related analogs for inhibiting YAP/TAZ-TEAD” (KATHOLIEKE UNIVERSITEIT LEUVEN, priority 2021, dated 2026)
# Tested on: YAP/TAZ-TEAD transcription
# Assay: Reporter gene assay for measuring the inhibition of YAP/TAZ-TEAD transcription (TEAD-responsive element luciferase reporter in Hek293T cells)
# Type: cell-based
# Settings: Homo sapiens, HEK-293T, 24 hours incubation
# Method: Hek293T cells are cultured in DMEM supplemented with 10% fetal bovine serum, Sodium pyruvate, Sodium bicarbonate, L-glutamine. The cells are harvested and transiently transfected with TEAD-responsive element luciferase reporter. Transfected cells are plated in 384-wells plate containing pre-diluted compounds. After 24 hours incubation at 37° C./5% CO2, assay plates were cooled down to RT and levelled to an equal volume per well, prior to the addition of 25 uL luciferase substrate SteadyLite (Perkin Elmer)/well. The plate was shaken for 10 min at 600 rpm, centrifuged for 1 min at 500 rpm and measured with an Envision reader (PerkinElmer). The amount of relative light units produced by the TEAD reporter is used to calculated percent of inhibition.
# The percent of reporter inhibition was calculated in the presence of a positive control inhibitor (100% inhibition) versus a condition with the presence of the vehicle basal activity of the reporter (0% inhibition). The ability of a test compound to inhibit this activity was determined as: Percentage inhibition=[1−((RLU determined in the presence of vehicle−RLU determined for sample with test compound present) divided by (RLU determined in the presence of vehicle−RLU determined for sample with positive control inhibitor))]*100
# The activities of the example compounds tested are depicted in the table below. The activity ranges A, B and C refer to EC50 values in the reporter gene assay as described as follows: “A”: EC50<1 μM; “B”: 1 μM s EC50≤20 μM and “C”: EC50>20 μM, NT=not tested.
row,EC50 [µM],Structure (SMILES)
1,< 1,"Cn1ccc(-c2cc(-c3ccccc3)ccc2NCCS(N)(=O)=O)n1 [compound 058, 2-((3-(1-methyl-1H-pyrazol-3-yl)-[1,1′-biphenyl]-4-yl)amino)ethane-1-sulfonamide]"
2,< 1,"O=C(O)CCNc1ccc(-c2ccccc2)cc1-c1ccn(Cc2cccnc2)n1 [compound 059, 3-((3-(1-(pyridin-3-ylmethyl)-1H-pyrazol-3-yl)-[1,1′-biphenyl]-4-yl)amino)propanoic acid]"
3,< 1,"CNC(=O)CCNc1ccc(-c2ccccc2)cc1-c1ccn(Cc2cccnc2)n1 [compound 060, N-methyl-3-((3-(1-(pyridin-3-ylmethyl)-1H-pyrazol-3-yl)-[1,1′-biphenyl]-4-yl)amino)propanamide]"
4,> 20,"O=C(O)CCNc1cc(-c2ccccc2)cc(-c2ccn(Cc3cccnc3)n2)c1 [compound 061, 3-((5-(1-(pyridin-3-ylmethyl)-1H-pyrazol-3-yl)-[1,1′-biphenyl]-3-yl)amino)propanoic acid]"
5,1 to 20,"CNC(=O)CCNc1cc(-c2ccccc2)cc(-c2ccn(Cc3cccnc3)n2)c1 [compound 062, N-methyl-3-((5-(1-(pyridin-3-ylmethyl)-1H-pyrazol-3-yl)-[1,1′-biphenyl]-3-yl)amino)propanamide]"
6,< 1,"Cn1ccc(-c2cc(-c3ccccc3)ccc2NCCC(=O)O)n1 [compound 063, 3-((3-(1-methyl-1H-pyrazol-3-yl)-[1,1′-biphenyl]-4-yl)amino)propanoic acid]"
7,< 1,"CNC(=O)CCNc1ccc(-c2ccccc2)cc1-c1ccn(C)n1 [compound 064, N-methyl-3-((3-(1-methyl-1H-pyrazol-3-yl)-[1,1′-biphenyl]-4-yl)amino)propanamide]"
8,1 to 20,"CSCCNc1ccc(-c2ccccc2)cc1-c1ccn(Cc2cccnc2)n1 [compound 065, N-(2-(methylthio)ethyl)-3-(1-(pyridin-3-ylmethyl)-1H-pyrazol-3-yl)-[1,1′-biphenyl]-4-amine]"
9,< 1,"CS(=N)(=O)CCNc1ccc(-c2ccccc2)cc1-c1ccn(Cc2cccnc2)n1 (centres unmarked) [compound 066, imino(methyl)(2-((3-(1-(pyridin-3-ylmethyl)-1H-pyrazol-3-yl)-[1,1′-biphenyl]-4-yl)amino)ethyl)-λ^6-sulfanone]"
10,1 to 20,"CNS(=O)(=O)CCN(C)c1ccc(-c2ccccc2)cc1-c1ccn(Cc2cccnc2)n1 [compound 067, N-methyl-2-(methyl(3-(1-(pyridin-3-ylmethyl)-1H-pyrazol-3-yl)-[1,1′-biphenyl]-4-yl)amino)ethane-1-sulfonamide]"
11,1 to 20,"O=S1(=O)CCC(Nc2ccc(-c3ccccc3)cc2-c2ccn(Cc3cccnc3)n2)CC1 [compound 068, 4-((3-(1-(pyridin-3-ylmethyl)-1H-pyrazol-3-yl)-[1,1′-biphenyl]-4-yl)amino)tetrahydro-2H-thiopyran-1,1-dioxide]"
12,1 to 20,"O=S1(=O)CCC(Nc2cc(-c3ccccc3)cc(-c3ccn(Cc4cccnc4)n3)c2)CC1 [compound 069, 4-((5-(1-(pyridin-3-ylmethyl)-1H-pyrazol-3-yl)-[1,1′-biphenyl]-3-yl)amino)tetrahydro-2H-thiopyran 1,1-dioxide]"
13,< 1,"c1ccc(-c2ccc(NC3CCCOC3)c(-c3ccn(Cc4cccnc4)n3)c2)cc1 (centres unmarked) [compound 070, N-(3-(1-(pyridin-3-ylmethyl)-1H-pyrazol-3-yl)-[1,1′-biphenyl]-4-yl)tetrahydro-2H-pyran-3-amine]"
14,1 to 20,"c1ccc(-c2cc(NC3CCCOC3)cc(-c3ccn(Cc4cccnc4)n3)c2)cc1 (centres unmarked) [compound 071, N-(5-(1-(pyridin-3-ylmethyl)-1H-pyrazol-3-yl)-[1,1′-biphenyl]-3-yl)tetrahydro-2H-pyran-3-amine]"
15,1 to 20,"O=C1CC(Nc2ccc(-c3ccccc3)cc2-c2ccn(Cc3cccnc3)n2)CCN1 (centres unmarked) [compound 072, 4-((3-(1-(pyridin-3-ylmethyl)-1H-pyrazol-3-yl)-[1,1′-biphenyl]-4-yl)amino)piperidin-2-one]"

# Further lines, the molecule ahead of its results:
row,Structure (SMILES),EC50 [µM]
1,"C=Cc1ccc(Cn2ccc(-c3cccc(-c4ccccc4)c3)n2)cn1 [compound 033, 5-((3-([1,1′-biphenyl]-3-yl)-1H-pyrazol-1-yl)methyl)-2-vinylpyridine]",1 to 20
2,"Nc1ccc(Cn2ccc(-c3cccc(-c4ccccc4)c3)n2)cn1 [compound 034, 5-((3-([1,1′-biphenyl]-3-yl)-1H-pyrazol-1-yl)methyl)pyridin-2-amine]",> 20
3,"C=Cc1cc(Cn2ccc(-c3cccc(-c4ccccc4)c3)n2)ccn1 [compound 035, 4-((3-([1,1′-biphenyl]-3-yl)-1H-pyrazol-1-yl)methyl)-2-vinylpyridine]",1 to 20
4,"CNc1cc(Cn2ccc(-c3cccc(-c4ccccc4)c3)n2)ccn1 [compound 036, 4-((3-([1,1′-biphenyl]-3-yl)-1H-pyrazol-1-yl)methyl)-N-methylpyridin-2-amine]",1 to 20
5,"C=CC(=O)Nc1ccc(Cn2ccc(-c3cccc(-c4ccccc4)c3)n2)cn1 [compound 037, N-(5-((3-([1,1′-biphenyl]-3-yl)-1H-pyrazol-1-yl)methyl)pyridin-2-yl)acrylamide]",1 to 20
6,"O=C1CCN1c1ccc(Cn2ccc(-c3cccc(-c4ccccc4)c3)n2)cn1 [compound 038, 1-(5-((3-([1,1′-biphenyl]-3-yl)-1H-pyrazol-1-yl)methyl)pyridin-2-yl)azetidin-2-one]",> 20
7,"CCC(=O)Nc1ccc(Cn2ccc(-c3cccc(-c4ccccc4)c3)n2)cn1 [compound 039, N-(5-((3-([1,1′-biphenyl]-3-yl)-1H-pyrazol-1-yl)methyl)pyridin-2-yl)propionamide]",1 to 20
8,"O=C(O)c1cncc(Cn2ccc(-c3cccc(-c4ccccc4)c3)n2)c1 [compound 040, 5-((3-([1,1′-biphenyl]-3-yl)-1H-pyrazol-1-yl)methyl)nicotinic acid]",> 20
9,"NC(=O)c1cncc(Cn2ccc(-c3cccc(-c4ccccc4)c3)n2)c1 [compound 041, 5-((3-([1,1′-biphenyl]-3-yl)-1H-pyrazol-1-yl)methyl)nicotinamide]",1 to 20
10,"O=C(O)c1ccncc1Cn1ccc(-c2cccc(-c3ccccc3)c2)n1 [compound 042, 3-((3-([1,1′-biphenyl]-3-yl)-1H-pyrazol-1-yl)methyl)isonicotinic acid]",> 20
11,"NC(=O)c1ccncc1Cn1ccc(-c2cccc(-c3ccccc3)c2)n1 [compound 043, 3-((3-([1,1′-biphenyl]-3-yl)-1H-pyrazol-1-yl)methyl)isonicotinamide]",1 to 20
12,"c1ccc(Nc2cccc(-c3ccn(Cc4ccccn4)n3)c2)cc1 [compound 044, N-phenyl-3-(1-(pyridin-2-ylmethyl)-1H-pyrazol-3-yl) aniline]",1 to 20
13,"c1ccc(Nc2cccc(-c3ccn(Cc4cccnc4)n3)c2)cc1 [compound 045, N-phenyl-3-(1-(pyridin-3-ylmethyl)-1H-pyrazol-3-yl)aniline]",1 to 20
14,"c1ccc(Nc2cccc(-c3ccn(CCc4cccnc4)n3)c2)cc1 [compound 046, N-phenyl-3-(1-(2-(pyridin-3-yl)ethyl)-1H-pyrazol-3-yl)aniline]",1 to 20
15,"c1ccc(-c2cccc(-c3nnn(Cc4cccnc4)n3)c2)cc1 [compound 047, 3-((5-([1,1′-biphenyl]-3-yl)-2H-tetrazol-2-yl)methyl)pyridine]",1 to 20
16,"O=C(Cc1cccnc1)Nc1cccc(-c2ccccc2)c1 [compound 048, N—([1,1′-biphenyl]-3-yl)-2-(pyridin-3-yl)acetamide]",1 to 20
17,"O=S(=O)(F)CCNc1ccc(-c2ccccc2)cc1-c1ccn(Cc2cccnc2)n1 [compound 049, 2-((3-(1-(pyridin-3-ylmethyl)-1H-pyrazol-3-yl)-[1,1′-biphenyl]-4-yl)amino)ethane-1-sulfonyl fluoride]",1 to 20
18,"CNS(=O)(=O)CCNc1ccc(-c2ccccc2)cc1-c1ccn(Cc2cccnc2)n1 [compound 050, N-methyl-2-((3-(1-(pyridin-3-ylmethyl)-1H-pyrazol-3-yl)-[1,1′-biphenyl]-4-yl)amino)ethane-1-sulfonamide]",< 1
19,"O=S1(=O)CCN(c2ccc(-c3ccccc3)cc2-c2ccn(Cc3cccnc3)n2)CC1 [compound 051, 4-(3-(1-(pyridin-3-ylmethyl)-1H-pyrazol-3-yl)-[1,1′-biphenyl]-4-yl)thiomorpholine 1,1-dioxide]",> 20
20,"CN(C)S(=O)(=O)CCNc1ccc(-c2ccccc2)cc1-c1ccn(Cc2cccnc2)n1 [compound 053, N,N-dimethyl-2-((3-(1-(pyridin-3-ylmethyl)-1H-pyrazol-3-yl)-[1,1′-biphenyl]-4-yl)amino)ethane-1-sulfonamide]",< 1
21,"O=S1(=O)CCN(c2cc(-c3ccccc3)cc(-c3ccn(Cc4cccnc4)n3)c2)CC1 [compound 055, 4-(5-(1-(pyridin-3-ylmethyl)-1H-pyrazol-3-yl)-[1,1′-biphenyl]-3-yl)thiomorpholine 1,1-dioxide]",1 to 20
22,"CNS(=O)(=O)CCNc1ccc(-c2ccccc2)cc1-c1ccn(C)n1 [compound 056, N-methyl-2-((3-(1-methyl-1H-pyrazol-3-yl)-[1,1′-biphenyl]-4-yl)amino)ethane-1-sulfonamide]",< 1
23,"Cn1ccc(-c2cc(-c3ccccc3)ccc2NCCS(=O)(=O)O)n1 [compound 057, 2-((3-(1-methyl-1H-pyrazol-3-yl)-[1,1′-biphenyl]-4-yl)amino)ethane-1-sulfonic acid]",> 20
